Test results: US9969742B2, “Imidazotriazinone compounds” (Ironwood Pharmaceuticals, Inc., priority 2012, dated 2018)
Where two headings read alike, the source gives them in different places. Blank lines part the entries; values can stand above or below the compound they belong to.

Key:
Assay type in all cases: biochemical
PDE9A2 = molecular target: T1, PDE9A2 (Homo sapiens, UniProt O76083); assay: Phosphodiesterase enzyme screening assay, PDE9A2; details: read-out: Band (PDE9A2 IC50)
T1 construct: purchased Reaction Biology Corporation, Malvern, Pa
T1 sequence (O76083 1-533 isoform O76083-2): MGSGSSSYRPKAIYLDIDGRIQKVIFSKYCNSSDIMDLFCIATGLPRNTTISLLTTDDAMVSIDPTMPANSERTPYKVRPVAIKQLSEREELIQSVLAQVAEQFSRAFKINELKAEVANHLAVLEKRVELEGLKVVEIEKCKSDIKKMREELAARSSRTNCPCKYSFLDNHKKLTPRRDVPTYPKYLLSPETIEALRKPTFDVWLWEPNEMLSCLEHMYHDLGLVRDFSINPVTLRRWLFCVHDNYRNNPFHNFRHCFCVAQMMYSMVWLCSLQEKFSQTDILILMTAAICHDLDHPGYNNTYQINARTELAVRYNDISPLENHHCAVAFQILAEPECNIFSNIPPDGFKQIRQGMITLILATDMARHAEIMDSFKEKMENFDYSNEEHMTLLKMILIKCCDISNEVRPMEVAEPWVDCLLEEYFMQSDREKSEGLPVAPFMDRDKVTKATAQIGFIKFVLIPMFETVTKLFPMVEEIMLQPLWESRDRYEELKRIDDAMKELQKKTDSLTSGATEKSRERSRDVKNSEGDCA
In short: (§1)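 Recombinant enzymes were run in 100 mM HEPES pH 7.5, 5 mM MgCl2, 1 mM DTT, 0.003% Brij with 4.0 μM cGMP substrate, started with cGMP or cAMP, 1 h at RT, and stopped with EDTA. Fluorescent substrate and product were separated by microfluidic mobility shift.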

PDE1A = molecular target: T2, PDE1A (Homo sapiens, UniProt P54750); assay: Phosphodiesterase enzyme screening assay, PDE1A
T2 construct: purchased Reaction Biology Corporation, Malvern, Pa
T2 sequence (P54750 whole entry): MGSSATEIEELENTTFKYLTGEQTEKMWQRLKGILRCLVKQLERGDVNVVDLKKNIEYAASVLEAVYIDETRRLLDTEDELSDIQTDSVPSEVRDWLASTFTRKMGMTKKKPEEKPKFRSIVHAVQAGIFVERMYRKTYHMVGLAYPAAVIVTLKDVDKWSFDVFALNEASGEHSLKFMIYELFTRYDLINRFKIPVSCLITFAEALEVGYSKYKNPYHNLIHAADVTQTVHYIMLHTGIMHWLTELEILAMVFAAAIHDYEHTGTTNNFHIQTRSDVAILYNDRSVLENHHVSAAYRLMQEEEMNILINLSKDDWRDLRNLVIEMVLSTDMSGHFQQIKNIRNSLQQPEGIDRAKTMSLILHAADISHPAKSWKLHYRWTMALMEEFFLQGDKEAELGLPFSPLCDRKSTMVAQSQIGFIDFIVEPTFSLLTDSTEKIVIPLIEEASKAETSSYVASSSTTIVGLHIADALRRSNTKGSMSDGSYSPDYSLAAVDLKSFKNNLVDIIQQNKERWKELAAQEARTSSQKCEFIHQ
In short: as §1

PDE1B = molecular target: T3, PDE1B (Homo sapiens, UniProt Q01064); assay: Phosphodiesterase enzyme screening assay, PDE1B
T3 construct: purchased Reaction Biology Corporation, Malvern, Pa
T3 sequence (Q01064 whole entry): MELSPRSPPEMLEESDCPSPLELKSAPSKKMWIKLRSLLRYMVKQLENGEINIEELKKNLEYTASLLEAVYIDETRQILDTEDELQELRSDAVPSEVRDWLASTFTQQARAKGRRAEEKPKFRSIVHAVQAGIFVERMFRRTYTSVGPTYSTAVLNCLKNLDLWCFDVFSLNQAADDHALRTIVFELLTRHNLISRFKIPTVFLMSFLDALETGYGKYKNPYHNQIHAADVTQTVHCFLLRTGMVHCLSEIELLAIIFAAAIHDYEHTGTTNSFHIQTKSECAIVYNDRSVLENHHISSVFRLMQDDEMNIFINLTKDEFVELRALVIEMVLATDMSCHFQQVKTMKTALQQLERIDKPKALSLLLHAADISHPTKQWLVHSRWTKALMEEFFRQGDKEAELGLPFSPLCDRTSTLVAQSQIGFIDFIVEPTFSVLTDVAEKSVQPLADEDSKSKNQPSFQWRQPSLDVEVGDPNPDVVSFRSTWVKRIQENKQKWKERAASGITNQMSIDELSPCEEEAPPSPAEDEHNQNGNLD
In short: as §1

[1] = 4.0 μM cGMP substrate, 1 hour at R.T.
[2] = ratio of IC50 values PDE1A / PDE9A2, value greater than 1 = greater selectivity for PDE9A2
[3] = ratio of IC50 values PDE1B / PDE9A2, value greater than 1 = greater selectivity for PDE9A2
[4] = Table 1, 10 concentrations, 4.0 μM cGMP substrate, 1 hour at R.T.
[5] = Table 1, ratio of IC50 values, value greater than 1 indicates greater selectivity for PDE9A2
[6] = ratio of IC50 values, value greater than 1 indicates greater selectivity for PDE9A2
[7] = Table 3, 4.0 μM cGMP substrate, 1 hour at R.T.
[8] = ratio of IC50 values, PDE1A versus PDE9A2, value greater than 1 = greater selectivity for PDE9A2
[9] = ratio of IC50 values, PDE1B versus PDE9A2, value greater than 1 = greater selectivity for PDE9A2

IC50 (PDE9A2; [1]): < 1 µM | PDE1A selectivity (versus PDE9A2) (PDE1A; [2]): 173 | PDE1B selectivity (versus PDE9A2) (PDE1B; [3]): 24
SMILES: CC1CN(Cc2ccccc2OC(F)(F)F)CC1c1nn2c(C3CCOCC3)ncc2c(=O)[nH]1 (single isomer, unassigned; (+)) [(+)-2-((3,4-trans)-4-methyl-1-(2-(trifluoromethoxy)benzyl)pyrrolidin-3-yl)-7-(tetrahydro-2H-pyran-4-yl)imidazo[5,1-f][1,2,4]triazin-4(3H)-one]

IC50 (PDE9A2; [4]): < 1 µM | PDE1A selectivity (versus PDE9A2) (PDE1A; [5]): 73 | PDE1B selectivity (versus PDE9A2) (PDE1B; [5]): 16
SMILES: CC1CN(Cc2ccccc2C(F)(F)F)CC1c1nn2c(C3CCOCC3)ncc2c(=O)[nH]1 (single isomer, unassigned; (+)) [(+)-2-((3,4-trans)-4-methyl-1-(2-(trifluoromethyl)benzyl)pyrrolidin-3-yl)-7-(tetrahydro-2H-pyran-4-yl)imidazo[5,1-f][1,2,4]triazin-4(3H)-one]

IC50 (PDE9A2; [4]): < 1 µM | PDE1A selectivity (versus PDE9A2) (PDE1A; [5]): 249 | PDE1B selectivity (versus PDE9A2) (PDE1B; [5]): 105
SMILES: Cc1ccccc1CN1CC(C)C(c2nn3c(C4CCOCC4)ncc3c(=O)[nH]2)C1 (single isomer, unassigned; (+)) [(+)-2-((3,4-trans)-4-methyl-1-(2-methylbenzyl)pyrrolidin-3-yl)-7-(tetrahydro-2H-pyran-4-yl)imidazo[5,1-f][1,2,4]triazin-4(3H)-one]

IC50 (PDE9A2; [4]): < 1 µM | PDE1A selectivity (versus PDE9A2) (PDE1A; [5]): 700 | PDE1B selectivity (versus PDE9A2) (PDE1B; [5]): 1190
SMILES: CC1CN(Cc2cccc(N3CCCC3)c2)CC1c1nn2c(C3CCOCC3)ncc2c(=O)[nH]1 (single isomer, unassigned; (+)) [(+)-2-((3,4-trans)-4-methyl-1-(3-(pyrrolidin-1-yl)benzyl)pyrrolidin-3-yl)-7-(tetrahydro-2H-pyran-4-yl)imidazo[5,1-f][1,2,4]triazin-4(3H)-one]

IC50 (PDE9A2; [4]): < 1 µM | PDE1A selectivity (versus PDE9A2) (PDE1A; [5]): 261 | PDE1B selectivity (versus PDE9A2) (PDE1B; [5]): 99
SMILES: CC1CN(Cc2cccc(OC(F)(F)F)c2)CC1c1nn2c(C3CCOCC3)ncc2c(=O)[nH]1 (single isomer, unassigned; (+)) [(+)-2-((3,4-trans)-4-methyl-1-(3-(trifluoromethoxy)benzyl)pyrrolidin-3-yl)-7-(tetrahydro-2H-pyran-4-yl)imidazo[5,1-f][1,2,4]triazin-4(3H)-one]

IC50 (PDE9A2; [4]): < 1 µM | PDE1A selectivity (versus PDE9A2) (PDE1A; [5]): 203 | PDE1B selectivity (versus PDE9A2) (PDE1B; [5]): 86
SMILES: CC1CN(Cc2cccc(C(F)(F)F)c2)CC1c1nn2c(C3CCOCC3)ncc2c(=O)[nH]1 (single isomer, unassigned; (+)) [(+)-2-((3,4-trans)-4-methyl-1-(3-(trifluoromethyl)benzyl)pyrrolidin-3-yl)-7-(tetrahydro-2H-pyran-4-yl)imidazo[5,1-f][1,2,4]triazin-4(3H)-one]

IC50 (PDE9A2; [4]): < 1 µM | PDE1A selectivity (versus PDE9A2) (PDE1A; [5]): 442 | PDE1B selectivity (versus PDE9A2) (PDE1B; [5]): 402
SMILES: Cc1cccc(CN2CC(C)C(c3nn4c(C5CCOCC5)ncc4c(=O)[nH]3)C2)c1 (single isomer, unassigned; (+)) [(+)-2-((3,4-trans)-4-methyl-1-(3-methylbenzyl)pyrrolidin-3-yl)-7-(tetrahydro-2H-pyran-4-yl)imidazo[5,1-f][1,2,4]triazin-4(3H)-one]

IC50 (PDE9A2; [1]): < 1 µM | PDE1A selectivity (versus PDE9A2) (PDE1A; [2]): 7 | PDE1B selectivity (versus PDE9A2) (PDE1B; [3]): 1
SMILES: CC1CN(c2nccc(C(F)(F)F)n2)CC1c1nn2c(C3CCOCC3)ncc2c(=O)[nH]1 (single isomer, unassigned; (+)) [(+)-2-((3,4-trans)-4-methyl-1-(4-(trifluoromethyl)pyrimidin-2-yl)pyrrolidin-3-yl)-7-(tetrahydro-2H-pyran-4-yl)imidazo[5,1-f][1,2,4]triazin-4(3H)-one]

IC50 (PDE9A2): < 1 µM | PDE1A selectivity (versus PDE9A2) (PDE1A; [6]): 208 | PDE1B selectivity (versus PDE9A2) (PDE1B; [6]): 266
SMILES: CC1CN(Cc2ncn(C)n2)CC1c1nn2c(C3CCOCC3)ncc2c(=O)[nH]1 (single isomer, unassigned; (+)) [(+)-2-((3,4-trans)-4-methyl-1-((1-methyl-1H-1,2,4-triazol-3-yl)methyl)pyrrolidin-3-yl)-7-(tetrahydro-2H-pyran-4-yl)imidazo[5,1-f][1,2,4]triazin-4(3H)-one]

IC50 (PDE9A2; [4]): < 1 µM | PDE1A selectivity (versus PDE9A2) (PDE1A; [5]): 181 | PDE1B selectivity (versus PDE9A2) (PDE1B; [5]): 356
SMILES: CC1CN(Cc2nc3ccccc3n2C)CC1c1nn2c(C3CCOCC3)ncc2c(=O)[nH]1 (single isomer, unassigned; (+)) [(+)-2-((3,4-trans)-4-methyl-1-((1-methyl-1H-benzo[d]imidazol-2-yl)methyl)pyrrolidin-3-yl)-7-(tetrahydro-2H-pyran-4-yl)imidazo[5,1-f][1,2,4]triazin-4(3H)-one]

IC50 (PDE9A2): < 1 µM | PDE1A selectivity (versus PDE9A2) (PDE1A; [6]): 197 | PDE1B selectivity (versus PDE9A2) (PDE1B; [6]): 107
SMILES: CC1CN(Cc2nccn2C)CC1c1nn2c(C3CCOCC3)ncc2c(=O)[nH]1 (single isomer, unassigned; (+)) [(+)-2-((3,4-trans)-4-methyl-1-((1-methyl-1H-imidazol-2-yl)methyl)pyrrolidin-3-yl)-7-(tetrahydro-2H-pyran-4-yl)imidazo[5,1-f][1,2,4]triazin-4(3H)-one]

IC50 (PDE9A2; [7]): < 1 µM | PDE1A selectivity (versus PDE9A2) (PDE1A; [8]): 628 | PDE1B selectivity (versus PDE9A2) (PDE1B; [9]): 721
SMILES: CC1CN(Cc2ccn(C)n2)CC1c1nn2c(C3CCOCC3)ncc2c(=O)[nH]1 (single isomer, unassigned; (+)) [(+)-2-((3,4-trans)-4-methyl-1-((1-methyl-1H-pyrazol-3-yl)methyl)pyrrolidin-3-yl)-7-(tetrahydro-2H-pyran-4-yl)imidazo[5,1-f][1,2,4]triazin-4(3H)-one]

IC50 (PDE9A2; [7]): < 1 µM | PDE1A selectivity (versus PDE9A2) (PDE1A; [8]): 247 | PDE1B selectivity (versus PDE9A2) (PDE1B; [9]): 434
SMILES: CC1CN(Cc2cnn(C)c2)CC1c1nn2c(C3CCOCC3)ncc2c(=O)[nH]1 (single isomer, unassigned; (+)) [(+)-2-((3,4-trans)-4-methyl-1-((1-methyl-1H-pyrazol-4-yl)methyl)pyrrolidin-3-yl)-7-(tetrahydro-2H-pyran-4-yl)imidazo[5,1-f][1,2,4]triazin-4(3H)-one]

IC50 (PDE9A2; [7]): < 1 µM | PDE1A selectivity (versus PDE9A2) (PDE1A; [8]): 243 | PDE1B selectivity (versus PDE9A2) (PDE1B; [9]): 370
SMILES: CC1CN(Cc2ccnn2C)CC1c1nn2c(C3CCOCC3)ncc2c(=O)[nH]1 (single isomer, unassigned; (+)) [(+)-2-((3,4-trans)-4-methyl-1-((1-methyl-1H-pyrazol-5-yl)methyl)pyrrolidin-3-yl)-7-(tetrahydro-2H-pyran-4-yl)imidazo[5,1-f][1,2,4]triazin-4(3H)-one]

IC50 (PDE9A2; [1]): < 1 µM | PDE1A selectivity (versus PDE9A2) (PDE1A; [2]): 139 | PDE1B selectivity (versus PDE9A2) (PDE1B; [3]): 201
SMILES: Cc1ncccc1CN1CC(C)C(c2nn3c(C4CCOCC4)ncc3c(=O)[nH]2)C1 (single isomer, unassigned; (+)) [(+)-2-((3,4-trans)-4-methyl-1-((2-methylpyridin-3-yl)methyl)pyrrolidin-3-yl)-7-(tetrahydro-2H-pyran-4-yl)imidazo[5,1-f][1,2,4]triazin-4(3H)-one]

IC50 (PDE9A2; [1]): < 1 µM | PDE1A selectivity (versus PDE9A2) (PDE1A; [2]): 232 | PDE1B selectivity (versus PDE9A2) (PDE1B; [3]): 421
SMILES: Cc1cc(CN2CC(C)C(c3nn4c(C5CCOCC5)ncc4c(=O)[nH]3)C2)ccn1 (single isomer, unassigned; (+)) [(+)-2-((3,4-trans)-4-methyl-1-((2-methylpyridin-4-yl)methyl)pyrrolidin-3-yl)-7-(tetrahydro-2H-pyran-4-yl)imidazo[5,1-f][1,2,4]triazin-4(3H)-one]
